In brackets after ≈: the same amount, converted by molar mass. Numbered stars: 1 amine (or outer) side, 2 acyl side, 3 side chain; on linkers, the order of the positions; unused ones are H or OH. Bridge positions count the residues as written; N and C are the ends. Square brackets hold non-standard residues; d marks the D form. Peptide text beside a SMILES is read from it. * marks the point of attachment. Piperazine(2S-CO,4-Me) = CN1CCN[C@H](C(=O)O)C1; Morpholine(3S-CO) = O=C(O)[C@@H]1COCCN1; Phe(3-Me) = Cc1cccc(C[C@H](N)C(=O)O)c1; X4 = O=C1CN([*:1])[C@H](C(=O)[*:2])CN1; NH(4-Cl-2-F-phenyl) = Fc1cc(Cl)ccc1N*; Pro(4R-Me) = C[C@H]1CN[C@H](C(=O)O)C1; Propanoyl(3-NMe2) = CN(C)CCC(=O)*; Hyp = O=C(O)[C@@H]1C[C@@H](O)CN1; NH(4-Et-phenyl) = CCc1ccc(N*)cc1; aThr = C[C@H](O)[C@H](N)C(=O)O; Pip = O=C(O)[C@@H]1CCCCN1; X3 = c1cc2c(cc1N*)OCCO2; CO = O=C([*:1])[*:2]; X2 = Fc1cc(N*)ccc1Cl
Experiments:
[1] = test system: S. aureus ATCC 29213; test: Minimal inhibitory concentration, microbroth dilution; assay type: cell-based; conditions: Staphylococcus aureus, ATCC29213; MIC; read-out: Minimal Inhibitory Concentrations (μM) S. aureus ATCC 29213
Method in brief: (§1)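 Susceptibility testing used the CLSI dilution standard, with bacteria at ~10^5 cfu/mL exposed to a two-fold compound series beginning at 200 μM final. The endpoint is the lowest concentration showing no growth after overnight incubation (37 °C, aerobic).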

[2] = test system: E. faecails; test: as above; assay type: cell-based; conditions: Enterococcus faecalis; MIC; read-out: Minimal Inhibitory Concentrations (μM) E. faecails
Method in brief: as §1

[3] = test system: MRSA NRS70; test: as above; assay type: cell-based; conditions: Staphylococcus aureus; MIC; read-out: Minimal Inhibitory Concentrations (μM) MRSA NRS70
Method in brief: as §1

[4] = test system: S. aureus USA 300; test: as above; assay type: cell-based; conditions: Staphylococcus aureus, USA300; MIC; read-out: Minimal Inhibitory Concentrations (μM) S. aureus USA 300
Method in brief: as §1

[5] = test system: S. aureus ΔClpP; test: as above; assay type: cell-based, Staphylococcus aureus; conditions: MIC; ClpP inactivated
Method in brief: as §1

[6] = Plasma protein binding, rapid equilibrium dialysis; assay type: in vitro ADME, mouse; conditions: mouse, 4 h, 10 μM, pH 7.4
Description: (§2) This assay determines plasma protein binding of a drug/compound and free drug concentration in plasma using rapid equilibrium dialysis, which allow the aqueous component of plasma containing the free drug/compound through a dialysis membrane (MWCO˜8,000).
(§3) Solutions were prepared at 10 mM in DMSO. Dulbecco's phosphate buffered saline (DPBS; pH 7.4) was obtained from Invitrogen (Carlsbad, Calif.). Single-Use RED (rapid equilibrium dialysis) device was obtained from Thermo scientific (Rockford, Ill.). Human plasma was obtained from Innovative Research INC (Novi, Michigan, Ill).
(§4) Sample preparation for plasma protein binding was modified from Waters' method. (Waters et al. (2008) J. Pharm. Sci. 97(10): 4586-95). The Teflon base plate with the RED inserts (MWCO 8 K) were allowed to use without any pre-condition the membrane inserts. Human plasma was thawed and centrifuged at 1000 rpm for 2 min to remove any particulates. Each compound was prepared at 10 μM in human plasma. This was done by adding 1 μL, of drug solution (10 mM in DMSO) to 1000 μL, of human plasma (0.1% DMSO). Spiked plasma solutions (300 μL) were placed into the sample chamber (indicated by the red ring) and 500 μL, of DPBS into the adjacent chamber. The plate was sealed and incubated at 37° C. on an orbital shaker (100 rpm) for 4 hours. After incubation, the seal was removed from the RED plate and the volume of the insert confirmed—little to no volume change occurred. Aliquots (50 μL) were removed from each side of the insert and dispensed into a 96-well deep plate. An equal volume of blank plasma or DPBS was added to the required wells to create analytically identical sample matrices (matrix matching). To each sample 200 μL, of ACN containing 4 μg/mL warfarin IS was added. All of the plates were sealed and mixed well at 600 rpm for 10 min and were centrifuged at 4000 rpm for 20 min. The supernatants (120 μL) were transferred to analytical plates for analysis by LCMS. Conditions for Waters ACQUITY-UPLC-MS-UV system were described separately. The test compound concentrations were quantified in both buffer and plasma chambers via peak areas relative to the internal standard. The percentage of the test compound bound to plasma was calculated on following equations: % Free=(Concentration buffer chamber/concentration plasma chamber)×100% and % Bound=100%-% Free.

[7] = Plasma protein binding, rapid equilibrium dialysis; assay type: in vitro ADME, human; conditions: human, 4 h, 10 μM, pH 7.4
Description: as §2, §3, §4

[8] = Plasma pharmacokinetics; assay type: in vivo, male BALB/c mice; conditions: male, BALB/c, mouse, in vivo, iv; for Vd: 10 mg/kg, Route i.v., read-out: Vss

Compound	MIC [1]	MIC [2]	MIC [3]	MIC [4]	Minimal Inhibitory Concentrations (μM) S. aureus ΔClpP [5]	Mouse [6]	Human [7]	AUC(0-inf) [8]	AUC(0-t) [8]	C^0 [8]	clearance [8]	half-life [8]	Vd [8]
CCc1ccc(NC(=O)N[C@@H](Cc2cccc(C)c2)C(=O)N[C@@H]2C(=O)N3C[C@H](O)C[C@H]3C(=O)N3CCOC[C@H]3C(=O)N[C@@H](C)C(=O)N3C[C@H](C)C[C@H]3C(=O)O[C@H]2C)cc1 [Compound 24, (S)-2-(3-(4-ETHYLPHENYL)UREIDO)-N-((6AS,8R,12S,13S,15AS,17R,21S,23AS)-8-HYDROXY-13,17,21-TRIMETHYL-6,11,15,20,23-PENTAOXOOCTADECAHYDRO-6H,11H,15H-[1,4]OXAZINO[3,4-I]DIPYRROLO[2,1-C:2′,1′-L][1]OXA[4,7,10,13]TETRAAZACYCLOHEXADECIN-12-YL)-3-(M-TOLYL)PROPANAMIDE] ({NH(4-Et-phenyl)-CO}-[Phe(3-Me)][aThr][Hyp][Morpholine(3S-CO)]A[Pro(4R-Me)]; ester 2-C)	0.313 µM (≈ 0.256 µg/mL)	0.156 µM (≈ 0.128 µg/mL)	0.156 µM (≈ 0.128 µg/mL)	0.313 µM (≈ 0.256 µg/mL)	>20 µM	98.2 ± 0.1%	97.7 ± 0.2%	3870 ng·h/mL	3850 ng·h/mL	27083.47 ng/mL	43 mL/min/kg	20.4 min	0.51 L/kg
Cc1cccc(C[C@H](NC(=O)Nc2ccc(Cl)cc2F)C(=O)N[C@@H]2C(=O)N3C[C@H](O)C[C@H]3C(=O)N3CCN(C)C[C@H]3C(=O)N[C@@H](C)C(=O)N3C[C@H](C)C[C@H]3C(=O)O[C@H]2C)c1 [Compound 31, (S)-2-(3-(4-CHLORO-2-FLUOROPHENYL)UREIDO)-N-((6AS,8R,12S,13S,15AS,17R,21S,23AS)-8-HYDROXY-2,13,17,21-TETRAMETHYL-6,11,15,20,23-PENTAOXOOCTADECAHYDRO-2H,6H,11H,15H-PYRAZINO[2,1-I]DIPYRROLO[2,1-C:2′,1′-L][1]OXA[4,7,10,13]TETRAAZACYCLOHEXADECIN-12-YL)-3-(M-TOLYL)PROPANAMIDE] ({NH(4-Cl-2-F-phenyl)-CO}-[Phe(3-Me)][aThr][Hyp][Piperazine(2S-CO,4-Me)]A[Pro(4R-Me)]; ester 2-C)	< 0.02 µM	< 0.02 µM	< 0.02 µM	0.078 µM (≈ 0.0667 µg/mL)	>20 µM	96.9 ± 6.9%	97.9 ± 7.9%	5260 ng·h/mL	5250 ng·h/mL	30582.19 ng/mL	31.7 mL/min/kg	93 min	0.63 L/kg
Cc1cccc(C[C@H](NC(=O)Nc2ccc(Cl)cc2F)C(=O)N[C@@H]2C(=O)N3C[C@H](OC(=O)CCN(C)C)C[C@H]3C(=O)N3CCCC[C@H]3C(=O)N[C@@H](C)C(=O)N3C[C@H](C)C[C@H]3C(=O)O[C@H]2C)c1 [Compound 46, (2R,6S,8AS,14AS,16R,20S,21S,23AS)-20-((S)-2-(3-(4-CHLORO-2-FLUOROPHENYL)UREIDO)-3-(M-TOLYL)PROPANAMIDO)-2,6,21-TRIMETHYL-5,8,14,19,23-PENTAOXOOCTADECAHYDRO-1H,5H,14H,19H-PYRIDO[2,1-I]DIPYRROLO[2,1-C:2′,1′-L][1]OXA[4,7,10,13]TETRAAZACYCLOHEXADECIN-16-YL 3-(DIMETHYLAMINO)PROPANOATE] ({NH(4-Cl-2-F-phenyl)-CO}-[Phe(3-Me)][aThr][Hyp](Propanoyl(3-NMe2))[Pip]A[Pro(4R-Me)]; ester 2-C)	0.313 µM (≈ 0.294 µg/mL)	0.156 µM (≈ 0.147 µg/mL)	0.313 µM (≈ 0.294 µg/mL)	0.313 µM (≈ 0.294 µg/mL)	>20 µM	93.0 ± 0.8%	99.5 ± 0.3%						
Cc1cccc(C[C@H](NC(=O)Nc2ccc(Cl)cc2F)C(=O)N[C@@H]2C(=O)N3CCC[C@H]3C(=O)N3CC(=O)NC[C@H]3C(=O)N[C@@H](C)C(=O)N3C[C@H](C)C[C@H]3C(=O)O[C@H]2C)c1 [Compound 20, (S)-2-(3-(4-CHLORO-2-FLUOROPHENYL)UREIDO)-3-(M-TOLYL)-N-((6AS,12S,13S,15AS,17R,21S,23AS)-13,17,21-TRIMETHYL-3,6,11,15,20,23-HEXAOXOOCTADECAHYDRO-2H,6H,11H,15H-PYRAZINO[2,1-I]DIPYRROLO[2,1-C:2′,1′-L][1]OXA[4,7,10,13]TETRAAZACYCLOHEXADECIN-12-YL)PROPANAMIDE] ({NH(4-Cl-2-F-phenyl)-CO}-[Phe(3-Me)][aThr]P[X4]A[Pro(4R-Me)]; ester 2-C)	1.25 µM (≈ 1.05 µg/mL)	2.5 µM (≈ 2.1 µg/mL)	5 µM (≈ 4.2 µg/mL)	5 µM (≈ 4.2 µg/mL)	>20 µM	98.7 ± 0.1%	97.5 ± 0.2%						
Cc1cccc(C[C@H](NC(=O)Nc2ccc3c(c2)OCCO3)C(=O)N[C@@H]2C(=O)N3CCC[C@H]3C(=O)N3CCCC[C@H]3C(=O)N[C@@H](C)C(=O)N3C[C@H](C)C[C@H]3C(=O)O[C@H]2C)c1 [Compound 21, (S)-2-(3-(2,3-DIHYDROBENZO[B][1,4]DIOXIN-6-YL)UREIDO)-3-(M-TOLYL)-N-((2R,6S,8AS,14AS,20S,21S,23AS)-2,6,21-TRIMETHYL-5,8,14,19,23-PENTAOXOOCTADECAHYDRO-1H,5H,14H,19H-PYRIDO[2,1-I]DIPYRROLO[2,1-C:2′,1′-L][1]OXA[4,7,10,13]TETRAAZACYCLOHEXADECIN-20-YL)PROPANAMIDE] ({X3-CO}-[Phe(3-Me)][aThr]P[Pip]A[Pro(4R-Me)]; ester 2-C)	0.625 µM (≈ 0.519 µg/mL)	0.625 µM (≈ 0.519 µg/mL)	0.313 µM (≈ 0.26 µg/mL)	1.25 µM (≈ 1.04 µg/mL)	>20 µM	99.2 ± 0.1%	97.3 ± 0.1%						
CCc1ccc(NC(=O)N[C@@H](Cc2cccc(C)c2)C(=O)N[C@@H]2C(=O)N3C[C@H](O)C[C@H]3C(=O)N3CCCC[C@H]3C(=O)N[C@@H](C)C(=O)N3C[C@H](C)C[C@H]3C(=O)O[C@H]2C)cc1 [Compound 25, (S)-2-(3-(4-ETHYLPHENYL)UREIDO)-N-((2R,6S,8AS,14AS,16R,20S,21S,23AS)-16-HYDROXY-2,6,21-TRIMETHYL-5,8,14,19,23-PENTAOXOOCTADECAHYDRO-1H,5H,14H,19H-PYRIDO[2,1-I]DIPYRROLO[2,1-C:2′,1′-L][1]OXA[4,7,10,13]TETRAAZACYCLOHEXADECIN-20-YL)-3-(M-TOLYL)PROPANAMIDE] ({NH(4-Et-phenyl)-CO}-[Phe(3-Me)][aThr][Hyp][Pip]A[Pro(4R-Me)]; ester 2-C)	0.156 µM (≈ 0.127 µg/mL)	0.156 µM (≈ 0.127 µg/mL)	0.156 µM (≈ 0.127 µg/mL)	0.313 µM (≈ 0.255 µg/mL)	>20 µM	99.5 ± 0.11%	99.2 ± 0.3%						
Cc1cccc(C[C@H](NC(=O)Nc2ccc(Cl)c(F)c2)C(=O)N[C@@H]2C(=O)N3CCC[C@H]3C(=O)N3CCCC[C@H]3C(=O)N[C@@H](C)C(=O)N3C[C@H](C)C[C@H]3C(=O)O[C@H]2C)c1 [Compound 35, (S)-2-(3-(4-CHLORO-3-FLUOROPHENYL)UREIDO)-3-(M-TOLYL)-N-((2R,6S,8AS,14AS,20S,21S,23AS)-2,6,21-TRIMETHYL-5,8,14,19,23-PENTAOXOOCTADECAHYDRO-1H,5H,14H,19H-PYRIDO[2,1-I]DIPYRROLO[2,1-C:2′,1′-L][1]OXA[4,7,10,13]TETRAAZACYCLOHEXADECIN-20-YL)PROPANAMIDE] ({X2-CO}-[Phe(3-Me)][aThr]P[Pip]A[Pro(4R-Me)]; ester 2-C)	0.625 µM (≈ 0.515 µg/mL)	1.25 µM (≈ 1.03 µg/mL)	0.313 µM (≈ 0.258 µg/mL)	0.625 µM (≈ 0.515 µg/mL)	>20 µM	99.7 ± 9.7%	99.9 ± 9.9%						
